Test results from ChEMBL document CHEMBL5724914, “Linking interpersonal differences in gut microbiota composition and drug biotransformation activity” (2024).

Assays:
[1] = (§1) The drug is tested on Z-027 corresponding to metagenome with ENA study accession number: PRJEB37062 and ENA sample accession number: ERS12561826 for biotransformation under anaerobic condition. The drug concentrations were measured over 9 timepoints collected between 0 and 24 hours of incubation by liquid-chromatography-coupled mass spectrometry (LC–MS); conditions: 2 µM
[2] = as §1, with “Z-004” for “Z-027”, “ERS12561804” for “ERS12561826”; conditions: 2 µM
[3] = human gut metagenome, 24 h, 2 µM
[4] = (§2) The drug is tested on Z-014 corresponding to rat gut metagenome with ENA study accession number: PRJEB37062 and ENA sample accession number: ERS12561814 for biotransformation under anaerobic condition. The drug concentrations were measured over 9 timepoints collected between 0 and 24 hours of incubation by liquid-chromatography-coupled mass spectrometry (LC–MS); conditions: 2 µM
[5] = human gut metagenome, 24 h, 2 µM; remark: listed apart in the source
[6] = as §2, with “on Z-003” for “on Z-014”, “to pig” for “to rat”, “number: ERS12561803” for “number: ERS12561814”; conditions: 2 µM
[7] = as §2, with “on Z-030” for “on Z-014”, “to mouse” for “to rat”, “number: ERS12561829” for “number: ERS12561814”; conditions: 2 µM
[8] = human gut metagenome, 24 h, 2 µM; remark: listed apart in the source
[9] = as §2, with “on WLS-370” for “on Z-014”, “to human” for “to rat”, “number: ERS12561793” for “number: ERS12561814”; conditions: 2 µM
[10] = human gut metagenome, 24 h, 2 µM; remark: listed apart in the source
[11] = as §1, with “Z-023” for “Z-027”, “ERS12561822” for “ERS12561826”; conditions: 2 µM
[12] = human gut metagenome, 24 h, 2 µM; remark: listed apart in the source
[13] = as §2, with “on Z-001” for “on Z-014”, “to mouse” for “to rat”, “number: ERS12561801” for “number: ERS12561814”; conditions: 2 µM
[14] = as §2, with “on WLS-086” for “on Z-014”, “to human” for “to rat”, “number: ERS12561752” for “number: ERS12561814”; conditions: 2 µM
[15] = human gut metagenome, 24 h, 2 µM; remark: listed apart in the source
[16] = human gut metagenome, 24 h, 2 µM; remark: listed apart in the source
[17] = as §2, with “on Z-016” for “on Z-014”, “to mouse” for “to rat”, “number: ERS12561815” for “number: ERS12561814”; conditions: 2 µM
[18] = human gut metagenome, 24 h, 2 µM; remark: listed apart in the source
[19] = as §2, with “on Z-009” for “on Z-014”, “to pig” for “to rat”, “number: ERS12561809” for “number: ERS12561814”; conditions: 2 µM
[20] = human gut metagenome, 24 h, 2 µM; remark: listed apart in the source
Also: call rule not given here.

| SMILES | Bacterial Biotransformation [1] | Bacterial Biotransformation [2] | Bacterial Biotransformation [3] | Bacterial Biotransformation [4] | Bacterial Biotransformation [5] | Bacterial Biotransformation [6] | Bacterial Biotransformation [7] | Bacterial Biotransformation [8] | Bacterial Biotransformation [9] | Bacterial Biotransformation [10] | Bacterial Biotransformation [11] | Bacterial Biotransformation [12] | Bacterial Biotransformation [13] | Bacterial Biotransformation [14] | Bacterial Biotransformation [15] | Bacterial Biotransformation [16] | Bacterial Biotransformation [17] | Bacterial Biotransformation [18] | Bacterial Biotransformation [19] | Bacterial Biotransformation [20] |
| --- | --- | --- | --- | --- | --- | --- | --- | --- | --- | --- | --- | --- | --- | --- | --- | --- | --- | --- | --- | --- |
| Nc1nc2ccc(OC(F)(F)F)cc2s1 [RILUZOLE] | Compound NOT metabolized | Compound metabolized | Compound metabolized | Compound NOT metabolized | Compound metabolized | Compound metabolized | Compound NOT metabolized | Compound NOT metabolized | Compound metabolized | Compound NOT metabolized | Compound metabolized | Compound metabolized | Compound metabolized | Compound metabolized | Compound metabolized | Compound metabolized | Compound NOT metabolized | Compound metabolized | Compound metabolized | Compound metabolized |
| CCCCC(=O)N(Cc1ccc(-c2ccccc2-c2nnn[nH]2)cc1)[C@H](C(=O)O)C(C)C | Compound NOT metabolized | Compound NOT metabolized | Compound metabolized | Compound NOT metabolized | Compound metabolized | Compound NOT metabolized | Compound NOT metabolized | Compound metabolized | Compound metabolized | Compound metabolized | Compound NOT metabolized | Compound metabolized | Compound NOT metabolized | Compound metabolized | Compound metabolized | Compound metabolized | Compound NOT metabolized | Compound metabolized | Compound NOT metabolized | Compound metabolized |
| Cc1ccc(-c2nc3ccc(C)cn3c2CC(=O)N(C)C)cc1 [ZOLPIDEM] | Compound NOT metabolized | Compound NOT metabolized | Compound metabolized | Compound NOT metabolized | Compound metabolized | Compound metabolized | Compound NOT metabolized | Compound NOT metabolized | Compound NOT metabolized | Compound NOT metabolized | Compound metabolized | Compound NOT metabolized | Compound NOT metabolized | Compound metabolized | Compound metabolized | Compound NOT metabolized | Compound NOT metabolized | Compound metabolized | Compound metabolized | Compound metabolized |
| Fc1ccc([C@@H]2CCNC[C@H]2COc2ccc3c(c2)OCO3)cc1 [PAROXETINE] | Compound NOT metabolized | Compound NOT metabolized | Compound metabolized | Compound NOT metabolized | Compound metabolized | Compound metabolized | Compound NOT metabolized | Compound NOT metabolized | Compound metabolized | Compound NOT metabolized | Compound metabolized | Compound NOT metabolized | Compound NOT metabolized | Compound metabolized | Compound metabolized | Compound NOT metabolized | Compound NOT metabolized | Compound metabolized | Compound metabolized | Compound metabolized |
| O=C(NCc1ccccc1)OCCO [BURAMATE] | Compound NOT metabolized | Compound NOT metabolized | Compound NOT metabolized | Compound NOT metabolized | Compound NOT metabolized | Compound NOT metabolized | Compound NOT metabolized | Compound NOT metabolized | Compound NOT metabolized | Compound NOT metabolized | Compound NOT metabolized | Compound NOT metabolized | Compound NOT metabolized | Compound NOT metabolized | Compound NOT metabolized | Compound NOT metabolized | Compound NOT metabolized | Compound NOT metabolized | Compound NOT metabolized | Compound NOT metabolized |
| NC12CC3CC(CC(C3)C1)C2 [AMANTADINE] | Compound NOT metabolized | Compound NOT metabolized | Compound NOT metabolized | Compound NOT metabolized | Compound NOT metabolized | Compound NOT metabolized | Compound NOT metabolized | Compound NOT metabolized | Compound NOT metabolized | Compound NOT metabolized | Compound NOT metabolized | Compound NOT metabolized | Compound NOT metabolized | Compound NOT metabolized | Compound NOT metabolized | Compound NOT metabolized | Compound NOT metabolized | Compound NOT metabolized | Compound NOT metabolized | Compound NOT metabolized |
| CCC(=O)NCC[C@@H]1CCc2ccc3c(c21)CCO3 [RAMELTEON] | Compound NOT metabolized | Compound metabolized | Compound metabolized | Compound metabolized | Compound metabolized | Compound metabolized | Compound NOT metabolized | Compound metabolized | Compound metabolized | Compound metabolized | Compound metabolized | Compound metabolized | Compound NOT metabolized | Compound metabolized | Compound metabolized | Compound NOT metabolized | Compound metabolized | Compound metabolized | Compound metabolized | Compound metabolized |
| CC(CN1c2ccccc2Sc2ccccc21)N(C)C (stereo not given) [PROMETHAZINE] | Compound NOT metabolized | Compound NOT metabolized | Compound metabolized | Compound NOT metabolized | Compound metabolized | Compound NOT metabolized | Compound NOT metabolized | Compound NOT metabolized | Compound NOT metabolized | Compound metabolized | Compound metabolized | Compound NOT metabolized | Compound NOT metabolized | Compound metabolized | Compound metabolized | Compound NOT metabolized | Compound NOT metabolized | Compound NOT metabolized | Compound NOT metabolized | Compound metabolized |
